Read-outs that look alike come from different tables or passages of the source.
Legend:
GPR139 = biological target: T1, GPR139 (Homo sapiens, UniProt Q6DWJ6); assay: GPR139 Agonist titration / agonist counterscreen assay (calcium detection, HEK-GPR139 cells); assay type: cell-based; set-up: expressed in transfected cells; host or cells: HEK Aequorin cells, Maxcyte transient transfection; conditions: GPR139 Agonist Activity; for Averaged Max % Response (±St. Dev.): activity relative to known control; for EC50: read-out: EC50
T1 sequence (Q6DWJ6 1-353): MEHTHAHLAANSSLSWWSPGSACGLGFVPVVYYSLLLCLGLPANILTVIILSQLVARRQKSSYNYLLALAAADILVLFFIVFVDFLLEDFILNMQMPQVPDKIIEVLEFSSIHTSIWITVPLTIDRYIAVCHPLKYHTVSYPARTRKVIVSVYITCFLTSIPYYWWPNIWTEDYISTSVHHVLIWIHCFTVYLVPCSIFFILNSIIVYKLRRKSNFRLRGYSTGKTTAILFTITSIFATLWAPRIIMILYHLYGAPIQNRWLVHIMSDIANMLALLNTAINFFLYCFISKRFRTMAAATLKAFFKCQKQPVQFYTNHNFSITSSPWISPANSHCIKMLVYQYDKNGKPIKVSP
Procedure: GPR activity was assessed using a calcium detection assay. […] Negative control samples were treated with DMSO. […] Intracellular calcium was measured using Calcium 5.

parental HEK cells = assay: HEK parental Agonist Counterscreen Assay (non-transfected cells); assay type: cell-based; conditions: for Averaged Max % Response (±St. Dev.): activity relative to known control
Excerpt: The high control for the agonist counterscreen was Forskolin not acetylcholine.

[1] = values printed in E-notation without unit
[2] = HEK Agonist Activity, parental non-transfected HEK cells
[3] = Homo sapiens, HEK293, HEK Agonist Activity section of Table 4 (parental HEK counterscreen)
[4] = Homo sapiens, HEK293, HEK Agonist Activity, parental non-transfected HEK cells

| Structure (SMILES) | Averaged Max % Response (±St. Dev.) (GPR139) | Lipophilic Efficiency (logD) (GPR139; based on logD) | Lipophilic Efficiency (logP) (GPR139; based on logP) | Hill Slope (GPR139; fitted dose-response curve) | Efficiency Ligand (GPR139; ligand efficiency) | EC50 (GPR139; [1]) | Lipophilic Efficiency (logD) (parental HEK cells; HEK Agonist Activity) | Lipophilic Efficiency (logP) (parental HEK cells; HEK Agonist Activity) | Averaged Max % Response (±St. Dev.) (parental HEK cells; HEK Agonist Activity) | Lipophilic Efficiency (logD) (parental HEK cells; HEK Agonist Activity section) | Lipophilic Efficiency (logP) (parental HEK cells; HEK Agonist Activity section) | Averaged Max % Response (±St. Dev.) (parental HEK cells; HEK Agonist Activity section) | EC50 (parental HEK cells; [3]) | other results |
| --- | --- | --- | --- | --- | --- | --- | --- | --- | --- | --- | --- | --- | --- | --- |
| CN(Cc1cccs1)C(=O)CN1C(=O)NC(C)(c2ccc3c(c2)OCO3)C1=O (stereo not drawn) [SR-01000068229] | 112.57 ± 13.42% | 7.01 | 7.01 | 0.64 | 0.43 | 2.9 nM | 3.29 | 3.29 | −2.42 ± 7.08% | – | – | – | – | EC50 (parental HEK cells; [2]): > 15400 nM |
| CC1C(CC(=O)NCC(=O)CCC2=Cc3ccccc3C2)=Nc2ccccc21 (stereo not drawn) [SR-01000068608] | 124.32 ± 15.50% | 4.52 | 4.51 | 0.93 | 0.34 | – | – | – | – | 2.46 | 2.46 | 24.17 ± 25.98% | > 14300 nM | – |
| Cc1cc(C(=O)NNC(=O)CNC(=O)Cc2cccc3ccccc23)c(C)o1 [SR-01000068718] | 119.00 ± 0.36% | 6.50 | 6.50 | 0.58 | 0.40 | 10.1 nM | 3.34 | 3.34 | 20.24 ± 11.96% | – | – | – | – | EC50 (parental HEK cells; [4]): > 14900 nM |
| O=C(CCC(=O)c1ccco1)NNC(=O)CN1CCCc2ccccc21 [SR-01000068721] | 109.68 ± 5.18% | 5.32 | 5.32 | 0.71 | 0.40 | 34.7 nM | 2.68 | 2.68 | 8.82 ± 10.34% | – | – | – | – | EC50 (parental HEK cells; [4]): > 15200 nM |
| Cn1c(CC(=O)NNC(=O)CSc2ccc3ccccc3c2)nc2ccccc21 [SR-01000068729] | 126.00 ± 7.94% | 6.03 | 6.03 | – | 0.44 | > 0.779 nM | 1.73 | 1.73 | −3.41 ± 1.08% | – | – | – | – | EC50 (parental HEK cells; [2]): > 15300 nM |
| O=C(COc1ccccc1F)NNC(=O)CSc1ccc2ccccc2c1 [SR-01000068761] | 123.40 ± 6.48% | 5.00 | 4.99 | 0.55 | 0.42 | 9.7 nM | 1.82 | 1.81 | 4.98 ± 10.48% | – | – | – | – | EC50 (parental HEK cells; [4]): > 14700 nM |
| O=C(CCc1nc2ccccc2s1)NNC(=O)C1CCCCC1 [SR-01000068916] | 118.50 ± 16.12% | 4.23 | 4.23 | 0.84 | 0.43 | 98.9 nM | – | – | – | 2.04 | 2.04 | 19.72 ± 5.30% | > 15300 nM | – |
| COc1cc(C(=O)NNC(=O)CCc2c[nH]c3ccccc23)ccc1OC(C)C [SR-01000068919] | 93.45 ± 21.44% | – | – | – | – | – | – | – | – | 1.78 | 1.78 | 39.50 ± 8.66% | > 14200 nM | Efficiency Ligand (GPR139): 0.31; Hill Slope (GPR139): 0.88; Lipophilic Efficiency (logD) (GPR139): 3.27; Lipophilic Efficiency (logP) (GPR139): 3.27; EC50 (GPR139; HEK-GPR139 cells): 460 nM |
| Cc1cc(C(=O)CCC(=O)NNC(=O)c2ccc(COc3ccccc3)cc2)c(C)o1 [SR-01000069259] | 126.19 ± 25.88% | 3.74 | 3.74 | – | 0.37 | > 6.5 nM | 0.40 | 0.40 | 7.00 ± 9.99% | – | – | – | – | EC50 (parental HEK cells; [4]): > 14200 nM |
| O=C(CSc1ccc2ccccc2c1)NNC(=O)c1ccc(Br)s1 [SR-01000069345] | 114.67 ± 3.82% | 4.37 | 4.37 | 1.18 | 0.49 | 3.7 nM | 0.77 | 0.77 | 15.34 ± 2.20% | – | – | – | – | EC50 (parental HEK cells; [2]): > 14700 nM |
| Cc1ccccc1SCC(=O)NNC(=O)c1ccc(Br)s1 [SR-01000069352] | 97.44 ± 1.25% | 3.03 | 3.02 | 1.19 | 0.44 | 248 nM | – | – | – | 1.25 | 1.25 | 11.25 ± 2.29% | > 14600 nM | – |
| Cc1ccc(SCC(=O)NNC(=O)CCC(=O)c2cccs2)cc1 [SR-01000069391] | 99.00 ± 11.26% | 4.39 | 4.39 | 0.48 | 0.39 | 171 nM | – | – | – | 2.43 | 2.43 | 12.32 ± 6.09% | – | EC50 (parental HEK cells; HEK Agonist Activity section of Table 4 (parental HEK counterscreen)): > 15500 nM |
| Cc1ccc(OCC(=O)NNC(=O)CN(C)S(=O)(=O)c2ccc(C)cc2)cc1 [SR-01000069435] | 94.34 ± 21.26% | 5.44 | 5.43 | 0.66 | 0.36 | – | – | – | – | 3.09 | 3.08 | 14.76 ± 3.78% | > 14600 nM | – |
| O=C(CCC1CCCC1)NNC(=O)CSc1ccc(Cl)cc1 [SR-01000069439] | 123.43 ± 12.00% | 3.93 | 3.93 | 0.62 | 0.46 | 61.7 nM | – | – | – | 1.55 | 1.55 | 1.51 ± 2.29% | > 14900 nM | – |
| O=C(Cc1cccc2ccccc12)NCC(=O)NNC(=O)c1ccco1 [SR-01000069451] | 95.18 ± 9.10% | 6.21 | 6.20 | 1.06 | 0.39 | 60.5 nM | – | – | – | 3.83 | 3.83 | 25.95 ± 1.00% | > 14400 nM | – |
| COc1ccccc1CC1(C)NC(=O)N(CC(=O)NC(C)c2cccc(Cl)c2)C1=O (stereo not drawn) [SR-01000069564] | 87.90 ± 18.60% | 4.85 | 4.85 | 0.93 | 0.36 | 17.2 nM | 1.93 | 1.93 | −3.54 ± 8.88% | – | – | – | – | EC50 (parental HEK cells; [2]): > 14400 nM |
| O=C(CCc1nc2ccccc2s1)NNC(=O)CSc1ccccc1F [SR-01000069574] | 93.05 ± 4.55% | – | – | – | – | – | – | – | – | 2.04 | 2.04 | 7.10 ± 4.83% | > 14500 nM | Efficiency Ligand (GPR139): 0.35; Hill Slope (GPR139): 0.94; Lipophilic Efficiency (logD) (GPR139): 3.68; Lipophilic Efficiency (logP) (GPR139): 3.67; EC50 (GPR139; HEK-GPR139 cells): 339 nM |
| Cc1ccc(C)c(C(=O)CCC(=O)NNC(=O)c2cc(C)oc2C)c1 [SR-01000069642] | 100.05 ± 4.70% | 4.99 | 4.99 | 0.80 | 0.41 | 43.1 nM | 2.45 | 2.45 | 8.55 ± 4.45% | – | – | – | – | EC50 (parental HEK cells; [4]): > 14800 nM |
| O=C(CN1C(=O)NC2(CCc3ccccc32)C1=O)Nc1cccc(Cl)c1 (stereo not drawn) [SR-01000069699] | 116.05 ± 3.28% | 4.18 | 4.18 | 0.54 | 0.38 | 108 nM | – | – | – | 2.03 | 2.03 | 12.32 ± 5.16% | > 15200 nM | – |

Reference: US20250099420A1, “SMALL MOLECULE MODULATORS OF GPR139 COMPLEX” (University of Florida Research Foundation, Incorporated, priority 2022, published 2025)
